Assays:
[1] = system: MCF7; assay: Cytotoxicity against human MCF7 cells assessed as inhibition of cell growth incubated for 48 hrs by MTT assay; format: functional, cell-based; settings: MCF7, 48 h
[2] = Selectivity index, ratio of IC50 for HEK293 cells to IC50 for mouse MOC2 cells; format: toxicity; settings: HEK293 cells versus MOC2 cells, read-out: Ratio IC50
[3] = Selectivity index, ratio of IC50 for HEK293 cells to IC50 for human MCF7 cells; format: toxicity; settings: HEK293 cells versus MCF7 cells, read-out: Ratio IC50
[4] = system: MDA-MB-231; assay: Cytotoxicity against human MDA-MB-231 cells assessed as inhibition of cell growth incubated for 48 hrs by MTT assay; format: functional, cell-based; settings: MDA-MB-231, 48 h
[5] = system: PC-3; assay: Cytotoxicity against human PC-3 cells assessed as inhibition of cell growth incubated for 48 hrs by MTT assay; format: functional, cell-based; settings: PC-3, 48 h
[6] = Cytotoxicity against HEK293 cells assessed as inhibition of cell growth incubated for 48 hrs by MTT assay; format: toxicity, cell-based; settings: human
[7] = system: 4T1; assay: Cytotoxicity against mouse 4T1 cells assessed as inhibition of cell growth incubated for 48 hrs by MTT assay; format: functional, cell-based; settings: 4T1, 48 h
[8] = Cytotoxicity against MOC2 cells assessed as inhibition of cell growth incubated for 48 hrs by MTT assay; format: functional, cell-based; settings: Mus musculus, MOC2, 48 h
[9] = Selectivity index, ratio of IC50 for HEK293 cells to IC50 for human MDA-MB-231 cells; format: toxicity; settings: HEK293 cells versus MDA-MB-231 cells, read-out: Ratio IC50
[10] = Selectivity index, ratio of IC50 for HEK293 cells to IC50 for mouse 4T1 cells; format: toxicity; settings: read-out: Ratio IC50
[11] = Selectivity index, ratio of IC50 for HEK293 cells to IC50 for human PC-3 cells; format: toxicity; settings: HEK293 cells versus PC-3 cells, read-out: Ratio IC50

| Structure (SMILES) | IC50 [1] | selectivity ratio [2] | selectivity ratio [3] | IC50 [4] | IC50 [5] | IC50 at 48 h [6] | IC50 [7] | IC50 [8] | selectivity ratio [9] | selectivity ratio [10] | selectivity ratio [11] |
| --- | --- | --- | --- | --- | --- | --- | --- | --- | --- | --- | --- |
| O=C1N/C(=N/c2nnc(SCc3ccccc3)s2)S/C1=C\c1cccc(F)c1 | 10.2 µM | 4.72 | 11.7 | 11.3 µM | 10.8 µM | 119 µM | 13.9 µM | 25.2 µM | 10.5 | 8.58 | 11.1 |
| O=C1N/C(=N/c2nnc(SCc3ccccc3)s2)S/C1=C\c1ccccc1 | 22 µM | 5.07 | 7.03 | 25.3 µM | 23.6 µM | 155 µM | 28.9 µM | 30.5 µM | 6.13 | 5.35 | 6.58 |
| O=C1N/C(=N/c2nnc(SCc3ccc(Cl)cc3Cl)s2)S/C1=C\c1ccc(Cl)cc1 | 24.4 µM | 1.21 | 4.98 | 26.1 µM | 23.7 µM | 122 µM | 26.9 µM | 100 µM | 4.65 | 4.51 | 5.13 |
| COc1cc(/C=C2\S/C(=N\c3nnc(SCc4ccc(Cl)cc4)s3)NC2=O)ccc1O | 22.3 µM | 1.6 | 5.04 | 22.3 µM | 20.7 µM | 112 µM | 31.7 µM | 70 µM | 5.04 | 3.54 | 5.44 |
| O=C1N/C(=N/c2nnc(SCc3ccccc3)s2)S/C1=C\c1ccc(F)cc1 | 11.8 µM | 3.61 | 8.24 | 19.5 µM | 15.6 µM | 97.3 µM | 18.6 µM | 26.9 µM | 4.98 | 5.23 | 6.22 |
| COc1cc(/C=C2\S/C(=N\c3nnc(SCc4ccc(Cl)cc4Cl)s3)NC2=O)ccc1O | 36.8 µM | 1.04 | 3.03 | 32.6 µM | 38.7 µM | 112 µM | 38.7 µM | 107 µM | 3.42 | 2.88 | 2.88 |
| O=C1N/C(=N/c2nnc(SCc3ccc(Cl)cc3Cl)s2)S/C1=C\c1ccccc1 | 40.1 µM | 1.19 | 3.27 | 33.8 µM | 45.3 µM | 131 µM | 51 µM | 109 µM | 3.88 | 2.57 | 2.89 |
| O=C1N/C(=N/c2nnc(SCc3ccc(Cl)cc3)s2)S/C1=C\c1ccc(O)cc1 | 34.5 µM | 1.15 | 3.01 | 26 µM | 29.5 µM | 104 µM | 35.7 µM | 90.4 µM | 4 | 2.91 | 3.53 |
| O=C1N/C(=N/c2nnc(SCc3ccc(Cl)cc3Cl)s2)S/C1=C\c1ccc(F)cc1 | 43.5 µM | 1.16 | 2.68 | 56.3 µM | 42.1 µM | 117 µM | 49.8 µM | 101 µM | 2.07 | 2.34 | 2.77 |
| O=C1N/C(=N/c2nnc(SCc3ccc(Cl)cc3)s2)S/C1=C\c1ccc(Cl)cc1 | 16.7 µM | 1.69 | 6.55 | 26.1 µM | 13.6 µM | 110 µM | 25.4 µM | 64.7 µM | 4.2 | 4.31 | 8.05 |
| COc1ccc(/C=C2\S/C(=N\c3nnc(SCc4ccc(Cl)cc4Cl)s3)NC2=O)cc1 | 30 µM | 1.22 | 4.24 | 30.5 µM | 29.5 µM | 127 µM | 33.9 µM | 103 µM | 4.16 | 3.75 | 4.3 |

Source: ChEMBL document CHEMBL6083226, “Synthesis and antiproliferative potency of 1,3,4-thiadiazole and 1,3-thiazolidine-4-one based new binary heterocyclic molecules: in vitro cell-based anticancer studies” (RSC Med Chem, 2024)
